# From ChEMBL document CHEMBL1130625, “Synthesis and antibacterial activity of novel 7-(3-substituted-3 or 4-trifluoromethyl-1-pyrrolidinyl)-8-methoxyfluoroquinolones” (1998)
# Tests used:
# Enterobacter cloacae = test: Compound was tested for antibacterial activity against gram negative Enterobacter cloacae Nek39; assay type: functional; settings: Enterobacter cloacae; read-out: MIC
# Proteus mirabilis = test: Compound was tested for antibacterial activity against gram negative Proteus mirabilis JY-10; assay type: functional; settings: Proteus mirabilis; read-out: MIC
# Proteus vulgaris [1] = test: Compound was tested for antibacterial activity against gram negative Proteus vulgaris KS-134; assay type: functional; settings: Proteus vulgaris; read-out: MIC
# [2] = tested on: Acinetobacter calcoaceticus; test: Compound was tested for antibacterial activity against gram negative Acinetobacter calcoaceticus No.4; assay type: functional; settings: Acinetobacter calcoaceticus; read-out: MIC
# Citrobacter freundii [3] = test: Compound was tested for antibacterial activity against gram negative Citrobacter freundii No.7; assay type: functional; settings: Citrobacter freundii; read-out: MIC
# Pseudomonas aeruginosa [4] = test: Compound was tested for antibacterial activity against gram negative Pseudomonas aeruginosa KP-254; assay type: functional; settings: Pseudomonas aeruginosa; read-out: MIC
# Klebsiella oxytoca = test: Compound was tested for antibacterial activity against gram negative Klebsiella oxytoca GN 10650; assay type: functional; settings: Klebsiella oxytoca; read-out: MIC
# Pseudomonas aeruginosa [5] = test: Compound was tested for antibacterial activity against gram negative Pseudomonas aeruginosa K-13; assay type: functional; settings: Pseudomonas aeruginosa; read-out: MIC
# Escherichia coli [6] = test: Compound was tested for antibacterial activity against gram negative Escherichia coli ML4707; assay type: functional; settings: Escherichia coli; read-out: MIC
# Enterococcus faecalis = test: Compound was tested for antibacterial activity against gram positive Enterococcus faecalis 1373; assay type: functional; settings: Enterococcus faecalis; read-out: MIC
# Escherichia coli [7] = test: Compound was tested for antibacterial activity against gram negative Escherichia coli CSH2/RK1; assay type: functional; settings: Escherichia coli; read-out: MIC
# Staphylococcus aureus [8] = test: Compound was tested for antibacterial activity against gram positive Staphylococcus aureus FDA 209P JC-1; assay type: functional; settings: Staphylococcus aureus; read-out: MIC
# Citrobacter freundii [9] = test: Compound was tested for antibacterial activity against gram negative Citrobacter freundii KP-29; assay type: functional; settings: Citrobacter freundii; read-out: MIC
# Pseudomonas aeruginosa [10] = test: Compound was tested for antibacterial activity against gram negative Pseudomonas aeruginosa PAO1; assay type: functional; settings: Pseudomonas aeruginosa; read-out: MIC
# Pseudomonas aeruginosa [11] = test: Compound was tested for antibacterial activity against gram negative Pseudomonas aeruginosa AK109; assay type: functional; settings: Pseudomonas aeruginosa; read-out: MIC
# Staphylococcus aureus [12] = test: Compound was tested for antibacterial activity against gram positive Staphylococcus aureus JS-1; assay type: functional
# Escherichia coli [13] = test: Compound was tested for antibacterial activity against gram negative Escherichia coli CSH2/RE45; assay type: functional; settings: Escherichia coli; read-out: MIC
# Proteus vulgaris [14] = test: Compound was tested for antibacterial activity against gram negative Proteus vulgaris No.33; assay type: functional; settings: Proteus vulgaris; read-out: MIC
# Staphylococcus aureus [15] = test: Compound was tested for antibacterial activity against gram positive Staphylococcus aureus smith; assay type: functional
# Escherichia coli [16] = test: Compound was tested for antibacterial activity against gram negative Escherichia coli NIHJ JC-2; assay type: functional
# Klebsiella pneumoniae [17] = test: Compound was tested for antibacterial activity against gram negative Klebsiella pneumoniae KC-1; assay type: functional; settings: Klebsiella pneumoniae; read-out: MIC
# Staphylococcus aureus [18] = test: Compound was tested for antibacterial activity against gram positive Staphylococcus aureus KP-90-3; assay type: functional; settings: Staphylococcus aureus; read-out: MIC
# Klebsiella pneumoniae [19] = test: Compound was tested for antibacterial activity against gram negative Klebsiella pneumoniae No.42; assay type: functional; settings: Klebsiella pneumoniae; read-out: MIC
# Serratia marcescens = test: Compound was tested for antibacterial activity against gram negative Serratia marcescens No.16-2; assay type: functional; settings: Serratia marcescens; read-out: MIC
# Streptococcus pyogenes = test: Compound was tested for antibacterial activity against gram positive Streptococcus pyogenes cook; settings: Streptococcus pyogenes; read-out: MIC
# Burkholderia cepacia = test: Compound was tested for antibacterial activity against gram negative Burkholderia cepacia 23; assay type: functional; settings: Burkholderia cepacia; read-out: MIC
# [20] = Staphylococcus aureus, read-out: MIC
# [21] = Escherichia coli, read-out: MIC
SMILES,MIC (Enterobacter cloacae) [µg/mL],MIC (Proteus mirabilis) [µg/mL],MIC (Proteus vulgaris [1]) [µg/mL],MIC [2] [µg/mL],MIC (Citrobacter freundii [3]) [µg/mL],MIC (Pseudomonas aeruginosa [4]) [µg/mL],MIC (Klebsiella oxytoca) [µg/mL],MIC (Pseudomonas aeruginosa [5]) [µg/mL],MIC (Escherichia coli [6]) [µg/mL],MIC (Enterococcus faecalis) [µg/mL],MIC (Escherichia coli [7]) [µg/mL],MIC (Staphylococcus aureus [8]) [µg/mL],MIC (Citrobacter freundii [9]) [µg/mL],MIC (Pseudomonas aeruginosa [10]) [µg/mL],MIC (Pseudomonas aeruginosa [11]) [µg/mL],MIC (Escherichia coli [13]) [µg/mL],MIC (Proteus vulgaris [14]) [µg/mL],MIC (Staphylococcus aureus [15]) [µg/mL],MIC (Klebsiella pneumoniae [17]) [µg/mL],MIC (Staphylococcus aureus [18]) [µg/mL],further results
COc1c(N2CC[C@@](CN)(C(F)(F)F)C2)c(F)cc2c(=O)c(C(=O)O)cn(C3CC3)c12.Cl,12.5,0.78,> 12.5,1.56,> 12.5,> 12.5,6.25,> 12.5,0.05,0.78,> 12.5,0.2,> 12.5,> 12.5,> 12.5,> 12.5,3.13,0.05,1.56,6.25,MIC (Staphylococcus aureus [12]; [20]): 0.1 µg/mL; MIC (Escherichia coli [16]; [21]): 3.13 µg/mL; MIC (Klebsiella pneumoniae [19]): 6.25 µg/mL; MIC (Serratia marcescens): > 12.5 µg/mL; MIC (Streptococcus pyogenes): 0.78 µg/mL; MIC (Burkholderia cepacia): 3.13 µg/mL
COc1c(N2CC[C@@](CO)(C(F)(F)F)C2)c(F)cc2c(=O)c(C(=O)O)cn(C3CC3)c12,6.25,0.39,100,1.56,25,> 100,3.13,50,0.05,0.39,25,0.1,> 100,12.5,12.5,25,1.56,0.025,1.56,3.13,MIC (Staphylococcus aureus [12]; [20]): 0.05 µg/mL; MIC (Escherichia coli [16]; [21]): 1.56 µg/mL; MIC (Klebsiella pneumoniae [19]): 3.13 µg/mL; MIC (Serratia marcescens): 12.5 µg/mL; MIC (Streptococcus pyogenes): 0.39 µg/mL; MIC (Burkholderia cepacia): 3.13 µg/mL
COc1c(N2C[C@@H](CO)[C@H](C(F)(F)F)C2)c(F)cc2c(=O)c(C(=O)O)cn(C3CC3)c12,3.13,0.2,100,0.78,12.5,> 100,1.56,25,0.2,0.2,6.25,0.025,> 100,3.13,6.25,6.25,0.78,≤ 0.006,1.56,0.78,MIC (Staphylococcus aureus [12]; [20]): 0.013 µg/mL; MIC (Escherichia coli [16]; [21]): 0.39 µg/mL; MIC (Klebsiella pneumoniae [19]): 3.13 µg/mL; MIC (Serratia marcescens): 6.25 µg/mL; MIC (Streptococcus pyogenes): 0.2 µg/mL; MIC (Burkholderia cepacia): 3.13 µg/mL
NC1CCN(c2nc3c(cc2F)c(=O)c(C(=O)O)cn3-c2ccc(F)cc2F)C1 (stereo not drawn) [TOSUFLOXACIN],0.2,0.05,> 12.5,0.025,0.39,> 12.5,0.05,6.25,0.013,0.2,0.39,0.05,> 12.5,0.39,0.39,0.39,0.05,0.025,0.025,12.5,MIC (Staphylococcus aureus [12]; [20]): 0.05 µg/mL; MIC (Escherichia coli [16]; [21]): 0.05 µg/mL; MIC (Klebsiella pneumoniae [19]): 0.025 µg/mL; MIC (Serratia marcescens): 0.39 µg/mL; MIC (Streptococcus pyogenes): 0.1 µg/mL; MIC (Burkholderia cepacia): 0.78 µg/mL

# More lines, main results first:
MIC (Enterobacter cloacae) [µg/mL],MIC (Proteus mirabilis) [µg/mL],MIC (Proteus vulgaris [1]) [µg/mL],MIC [2] [µg/mL],MIC (Citrobacter freundii [3]) [µg/mL],MIC (Pseudomonas aeruginosa [4]) [µg/mL],MIC (Klebsiella oxytoca) [µg/mL],MIC (Pseudomonas aeruginosa [5]) [µg/mL],MIC (Escherichia coli [6]) [µg/mL],MIC (Enterococcus faecalis) [µg/mL],MIC (Escherichia coli [7]) [µg/mL],MIC (Staphylococcus aureus [8]) [µg/mL],MIC (Citrobacter freundii [9]) [µg/mL],MIC (Pseudomonas aeruginosa [10]) [µg/mL],MIC (Pseudomonas aeruginosa [11]) [µg/mL],MIC (Escherichia coli [13]) [µg/mL],MIC (Proteus vulgaris [14]) [µg/mL],MIC (Staphylococcus aureus [15]) [µg/mL],MIC (Klebsiella pneumoniae [17]) [µg/mL],MIC (Staphylococcus aureus [18]) [µg/mL],SMILES,further results
3.13,0.2,100,0.2,3.13,> 100,0.39,50,0.1,0.39,3.13,0.05,100,3.13,6.25,3.13,0.39,0.025,0.2,1.56,COc1c(N2C[C@@H](C(F)(F)F)[C@@H](N)C2)c(F)cc2c(=O)c(C(=O)O)cn(C3CC3)c12.Cl,MIC (Staphylococcus aureus [12]; [20]): 0.05 µg/mL; MIC (Escherichia coli [16]; [21]): 0.2 µg/mL; MIC (Klebsiella pneumoniae [19]): 0.39 µg/mL; MIC (Serratia marcescens): 3.13 µg/mL; MIC (Streptococcus pyogenes): 0.39 µg/mL; MIC (Burkholderia cepacia): 1.56 µg/mL
1.56,0.2,50,0.2,1.56,> 100,0.2,50,0.05,0.05,3.13,0.05,50,6.25,6.25,1.56,0.39,≤ 0.006,0.1,0.78,COc1c(N2C[C@H](CN)[C@@H](C(F)(F)F)C2)c(F)cc2c(=O)c(C(=O)O)cn(C3CC3)c12.Cl,MIC (Staphylococcus aureus [12]; [20]): 0.013 µg/mL; MIC (Escherichia coli [16]; [21]): 0.2 µg/mL; MIC (Klebsiella pneumoniae [19]): 0.39 µg/mL; MIC (Serratia marcescens): 0.78 µg/mL; MIC (Streptococcus pyogenes): 0.025 µg/mL; MIC (Burkholderia cepacia): 1.56 µg/mL
0.39,0.05,50,0.2,0.39,100,0.1,6.25,0.025,0.05,0.39,0.013,12.5,0.78,0.78,0.39,0.1,≤ 0.006,0.1,0.2,COc1c(N2C[C@@H](CN)[C@H](C)C2)c(F)cc2c(=O)c(C(=O)O)cn(C3CC3)c12.Cl,MIC (Staphylococcus aureus [12]; [20]): ≤ 0.006 µg/mL; MIC (Escherichia coli [16]; [21]): 0.05 µg/mL; MIC (Klebsiella pneumoniae [19]): 0.1 µg/mL; MIC (Serratia marcescens): 0.39 µg/mL; MIC (Streptococcus pyogenes): ≤ 0.006 µg/mL; MIC (Burkholderia cepacia): 1.56 µg/mL
0.39,0.1,50,0.1,0.78,100,0.1,12.5,0.05,0.05,0.78,0.025,25,1.56,1.56,0.78,0.1,≤ 0.006,0.05,0.39,COc1c(N2C[C@@H](CN)[C@H](C(F)(F)F)C2)c(F)cc2c(=O)c(C(=O)O)cn(C3CC3)c12.Cl (racemic),MIC (Staphylococcus aureus [12]): 0.013 µg/mL; MIC (Escherichia coli [16]): 0.1 µg/mL; MIC (Klebsiella pneumoniae [19]): 0.2 µg/mL; MIC (Serratia marcescens): 0.39 µg/mL; MIC (Streptococcus pyogenes): 0.025 µg/mL; MIC (Burkholderia cepacia): 1.56 µg/mL
